Results on one molecule are retold here after patent US5767120A, “Tricyclic derivatives, compositions and methods of use” (Schering Corporation, priority 1995, dated 1998).

For one test, the system named is TNF-α. The experiment in a line: Inhibition of LPS-Induced TNF-α Production From the Murine Cell Line WEHI-265. The format is cell-based. Particulars: Mus musculus, WEHI-265 cells, 20-24 hours. The protocol: This test procedure is a standard test used to determine anti-TNF-α activity and to evaluate the usefulness of said compounds for counteracting the biological effects of TNF-α.
1. In Vitro Study: Inhibition of LPS-Induced TNF-α Production From the Murine Cell Line WEHI-265
1) Cells (obtained from cell cultures containing ≤10^6 cells/ml) are suspended at 0.2×10^6 cells/ml in complete medium (RPMI1640, with 10% FCS, 10^-5 M 2-ME, 2 mM glutamine and 10 mM HEPES buffer) and plated in CoStar 24 well plates (1.0 ml/well).
2) Compounds are dissolved in the appropriate vehicle at 400 times the concentration to be tested, and 5 μl of compound is added to the wells.
3) LPS (from E. coli 0111:B4) is diluted to 6 μg/ml and 1.0 ml is added to wells.
4) Plates are incubated 20-24 hours in 37° CO02 incubator.
5) Supernatant fluids are collected and analyzed for TNF content as described in J. ImmunoL, 142:3884.

The subject of a further test is serum TNF. The experiment in a line: Inhibition of LPS-Induced Serum TNF. In kind it is in vivo, Mice (C57BI/6J males). Particulars: Mus musculus, 1.5 h; 25 mg/kg orally or i.p. one hour before LPS (50 μg i.p.); serum 90 min after LPS; values may be subject to a wide margin of error. The protocol:
In addition to the in vitro test described above, the following in vivo test was also performed on several of the compounds of the present invention.
2. In Vivo Study: Inhibition of LPS-Induced Serum TNF
1) Mice (C57BI/6J males, 6-8 weeks of age) are dosed with the indicated compound (dissolved in CMC suspension vehicle; compounds are given orally or i.p. one hour before LPS challenge).
3) Mice are bled 90 min after LPS challenge.
4) Sera are analyzed for TNF content by ELISA as described in J. Immunol.

Test [1] in a line: Inhibition of LPS/Galactosaimine-Induced Lethality (septic shock). Particulars: 25 mg/kg orally or i.p. one hour before LPS (100 ng) and d-galactosamine (8 mg) i.p.; survival 24 hours after challenge. In kind it is in vivo, Mice (C57BI/6J males). The protocol: This test procedure is a standard test used to determine activity against septic shock.
3. In Vivo Study: Inhibition of LPS/Galactosaimine-Induced Lethality
1) Mice (C57BI/6J males, 6-8 weeks of age) are dosed with the indicated compound (dissolved in CMC suspension vehicle; compounds are given orally or i.p. one hour before challenge with LPS and d-galactosamine).
2) Mice are challenged i.p. with a mixture of LPS (from E. coli 0111:B4; 100 ng) and d-galactosamine (8 mg).
3) Survival is determined 24 hours after challenge. See procedure published in J. Exp. Med. 165:657 (1987)

Broadly, the inhibition is the share of the control response that was lost under treatment. Low values mean a weak effect, high ones a strong effect. Broadly, the inhibition in vivo is the percentage by which the read-out fell short of the control.

Consider `C=CCC1(CCN(C)C)c2ccccc2CCc2ccccc21` [Compound IE, 10,11-dihydro-N,N-dimethyl-5-(2-propenyl)-5H-dibenzo[a,d]cycloheptene-5-(2-ethanamine)], for which the inhibition at 10 µM with TNF-α worked out at 67%. The same molecule returned an inhibition in vivo at 25 mg/kg with serum TNF of 48%. The “# dead/total at 25 mg/kg” value in test [1] is reported as 0/9.
